# In patent US20150086646A1, “ANESTHETIC NEUTRALIZATION METHODS” (Instigo Biotech Ltd., priority 2012, published 2015):
# Tested on: Male rats (SD Rat)
# Test: Paw thermal sensitivity (Plantar test) in rats after regional anesthesia of the sciatic and saphenous nerves
# Type: in vivo
# Details: for response time (average time before lifting the treated limb) / response time relative to group 2 (anesthetic + buffer): 150 microliters at each locus; for response time (average time before lifting the treated limb): 7 min after lidocaine HCl 2%/epinephrine 1:100,000, 5 minutes after administration, anesthetic + buffer group 20-35 seconds, no-anesthetic control 4-6 seconds; for elimination of effects of regional anesthesia (overall conclusion of the model): rat model, lidocaine HCl 2%/epinephrine 1:100,000 nerve block
# Protocol: An animal model was performed to test ROS/RNS dosages and effects on sensory anesthesia following administration of regional anesthesia, as follows. Male rats (SD Rat) weighing between 300-350 grams, were supplied by Harlan, Israel, and were randomly assigned to experimental groups. Rats were provided with sterile rodent diet with free access to drinking water. In the animal model, a testing chamber (Plantar test 3730 apparatus, made by Ugo Basile) was used in which the rats were placed on a surface which is heated and increases heat gradually. A measurement of time from placement of the rat's hind limb on the hot surface to lifting the hind limb was recorded. […] All rats were habituated to the testing facilities for five days before the model, and then introduced into the testing chamber two days prior to the testing of regional anesthesia in order to habituate rats to the apparatus. One day prior to regional anesthetic administration, baseline body weight measurements and baseline paw thermal sensitivity were recorded. Rats were randomly divided into 7 groups having 4 rats in each group. Group 1 was not administered anesthesia, but was administered saline solution as a vehicle at the time of regional anesthetic administration to groups 2-7. Groups 2 through 7 were administered lidocaine HCl 2%/epinephrine 1:100,000 ready to use solution (hereinafter, “anesthetic,”) 7 minutes before administering test items. Regional anesthetic was injected around the sciatic and saphenous nerves at a volume of 150 microliters at each site of the rat's left hind limb. Injection around the saphenous nerve was performed via local injection to/next to the adductor canal which runs on the medial aspect of the thigh between the vastus medialis and the sartorius muscles, about 2-3 cm below the inguinal canal. Injection around the sciatic nerve was performed via local injection to the sciatic notch, positioned 1 mm from the femoral shaft between the greater trochanter and ischial tuberosity pointing toward the ischium. Five minutes after injection of regional anesthetic, an assessment of the nerve blocks was performed by pinching the rat's paw to determine if the regional anesthetics were properly administered. Seven minutes after regional anesthetic administration, test agents were administered to the same loci, in a volume of 150 microliters at each locus. Groups 1 and 2 were administered a vehicle buffer as test agents. Group 3 was administered 0.1 mM hydrogen peroxide, formulated in saline solution. […] PON which was administered to rats was prepared by commercially available sodium peroxynitrite in NaCl and NaOH each at a concentration of 0.3 molar, available from Cayman Chemical. The commercially available PON was diluted to the desired concentrations for injection, by forming a suspension in 0.3M NaCl, 0.1M glycine having a pH of 10.5. All rats were tested for paw thermal sensitivity at 5, 10, 15, 20, 60 and 120 minutes after administration of the test items using the testing chamber. The results of average time before lifting the treated limb in each rat for each time point was calculated and is depicted in FIG. 2.
SMILES,response time (average time before lifting the treated limb) (group 4: PON 40 mM) [s],response time (average time before lifting the treated limb) (group 5: PON 10 mM) [s],"response time relative to group 2 (anesthetic + buffer) (group 6: PON 1 mM, 5 and 10 minute time points)",elimination of effects of regional anesthesia (overall conclusion of the model),"response time relative to group 2 (anesthetic + buffer) (group 3: 0.1 mM hydrogen peroxide in saline, 5, 10 and 15 minute time points)","statistical significance of the effect on response time (group 3: 0.1 mM hydrogen peroxide, 4 rats per group)"
"O=NOO [PON, sodium peroxynitrite]",4 to 6,4 to 6,improved response time,effective in quickly eliminating effects of regional anesthesia,–,–
"OO [H2O2, hydrogen peroxide]",–,–,–,effective in quickly eliminating effects of regional anesthesia,decreased response time,not statistically significant
